From patent US5478817A, “Digitoxigenin and dihydrodigitoxigenin 3β-derivatives and pharmaceutical compositions comprising same for the treatment of cardiovascular disorders” (priority 1992, dated 1995)
Counter-ions that a name gives are not always drawn. Like-named read-outs stand apart in the source and are kept apart here.

How the values were obtained:
[1] = molecular target: T1, Na^+,K^+ -ATPase receptor (Homo sapiens, UniProt P05023); test: displacement of the specific ^3 H-ouabain binding from the Na^+,K^+ -ATPase receptor
T1 construct: Na^+,K^+ -ATPase receptor purified according to Jorghensen; from tissue
Description: (§1) To test the affinity for the receptor site of the Na^+,K^+ -ATPase and the agonist or inhibitory activity on the enzyme, the following tests were used: a) displacement of the specific ^3 H-ouabain binding from the Na^+,K^+ -ATPase receptor purified according to Jorghensen (Jorghensen P., BBA, 1974,356, 36) and Erdmann (Erdmann E. et al., Arzneim. Forsh., 1984, 34 (II), 1314); b) inhibition of the activity of the purified Na^+,K^+ -ATPase measured as % of hydrolysis of ^32 P-ATP in presence and in absence of the tested compound (Mall F. et al., Biochem. Pharmacol., 1984, 33, 47).
(§2) The affinity and the inhibitory activity of the aglycone digitoxigenin (DIGI), dihydrodigitoxigenin 20(S) (DIGI 20(S)) and dihydrodigitoxigenin 20(R) (DIGI 20(R)) and some basic 3β-derivatives on the two tests are shown in the following table: […]

[2] = molecular target: T2, purified Na^+,K^+ -ATPase (Homo sapiens, UniProt P05023); test: inhibition of the activity of the purified Na^+,K^+ -ATPase (hydrolysis of ^32 P-ATP); type: biochemical
T2 construct: Na^+,K^+ -ATPase receptor purified according to Jorghensen; from tissue
Description: as §1, §2

[3] = tested on: spontaneous hypertensive rats (MHS); test: systolic blood pressure and heart rate in hypertensive MHS rats (indirect tail-cuff); type: in vivo, rat (MHS); conditions: 20 mg/Kg/os daily for ten days in Methocel 0.5% w/v, 7 MHS rats; for SBP (systolic blood pressure): controls 171 +/- 4.5; for HR (heart rate): controls 384 +/- 11.0
Method: The ability of these compounds to lower blood pressure in adult hypertensive MHS rats was tested by the following method:
systolic blood pressure (SBP) and heart rate (HR) were measured by an indirect tail-cuff method in three-month old hypertensive MHS rats before beginning treatment (basal values). The rats were then subdivided in two groups of 7 animals each, one receiving the compound and the other, the control group, receiving only the vehicle. The compound, suspended in METHOCEL® 0.5% (w/v), for ten days, was administered daily by mouth. SBP and HR were measured daily 6 and 24 hours after the treatment. When ten-day treatment washout had been under way for at least two days, whether the treatment mantains SBP low or re-establish the basal values was verified. […]

[4] = ^3 H-ouabain displacement, purified Na^+,K^+ -ATPase, read-out: Binding ^3 H-Ouab. Displacement log IC50 (converted)
[5] = % hydrolysis of ^32 P-ATP, purified Na^+,K^+ -ATPase, read-out: Inhibitory Activity log IC50 (converted)

Question: How did the IC50 [1] turn out when C[C@]12CC[C@H](OCCN3CCCC3)C[C@H]1CC[C@@H]1[C@@H]2CC[C@]2(C)[C@@H](C3=CC(=O)OC3)CC[C@]12O [Comp. I-a, 3β-(2-(1-Pyrrolidinyl)ethoxy)-14β-hydroxy-5β-card-20(22)-enolide] was run?
Answer: 0.0631 µM

Question: And the IC50 [2]?
Answer: 0.251 µM

Question: CN(C)CCCO[C@H]1CC[C@@]2(C)[C@H](CC[C@@H]3[C@@H]2CC[C@]2(C)[C@@H](C4=CC(=O)OC4)CC[C@]32O)C1 [Comp. I-b, 3β-(3-Dimethylaminopropoxy)-14β-hydroxy-5β-card-20(22)-enolide] was tested. Which IC50 [1] did it give?
Answer: 0.2 µM

Question: What about the IC50 [2] of the same compound?
Answer: 5.01 µM

Question: C[C@]12CC[C@H](OCC[N+](C)(C)C)C[C@H]1CC[C@@H]1[C@@H]2CC[C@]2(C)[C@@H](C3=CC(=O)OC3)CC[C@]12O [Comp. I-c, 3β-(2-(trimethylammonium)ethoxy)-14β-hydroxy-5β-card-20(22)-enolide chloride] was tested. Which IC50 [1] did it give?
Answer: 0.251 µM

Question: And the IC50 [2]?
Answer: 0.501 µM

Question: And the “SBP (systolic blood pressure)” value [3]?
Answer: 152 +/- 5.0 mm Hg

Question: What about the “HR (heart rate)” value [3] of the same compound?
Answer: 375 +/- 9.0 beats/min.

Question: How did the IC50 [1] turn out when C[C@]12CC[C@H](OCCCN)C[C@H]1CC[C@@H]1[C@@H]2CC[C@]2(C)[C@@H](C3=CC(=O)OC3)CC[C@]12O [Comp. I-d, 3β-(3-Aminopropoxy)-14β-hydroxy-5β-card-20(22)-enolide oxalate] was run?
Answer: 0.126 µM

Question: What about the IC50 [2] of the same compound?
Answer: 0.631 µM

Question: And the “SBP (systolic blood pressure)” value [3]?
Answer: 148 +/- 3.2 mm Hg

Question: What about the “HR (heart rate)” value [3] of the same compound?
Answer: 388 +/- 12.0 beats/min.

Question: Which IC50 [1] does the source give for CN(C)CCOCCO[C@H]1CC[C@@]2(C)[C@H](CC[C@@H]3[C@@H]2CC[C@]2(C)[C@@H](C4=CC(=O)OC4)CC[C@]32O)C1 [Comp. I-e, 3β-(2-(2-dimethylaminoethoxy)ethoxy)-14β-hydroxy-5β-card-20(22)-enolide] here?
Answer: 0.1 µM

Question: And the IC50 [2]?
Answer: 1 µM

Question: What about the “SBP (systolic blood pressure)” value [3] of the same compound?
Answer: 149 +/- 4.8 mm Hg

Question: What about the “HR (heart rate)” value [3] of the same compound?
Answer: 395 +/- 10.0 beats/min.

Question: Which results are given for C[C@]12CC[C@H](OCCC(=N)N)C[C@H]1CC[C@@H]1[C@@H]2CC[C@]2(C)[C@@H](C3=CC(=O)OC3)CC[C@]12O [Comp. I-f, 3β-(2-Amidinoethoxy)-14β-hydroxy-5β-card-20(22)-enolide oxalate]?
Answer: IC50 [1]: 0.158 µM; IC50 [2]: 1.58 µM; SBP (systolic blood pressure) [3]: 153 +/- 5.1 mm Hg; HR (heart rate) [3]: 378 +/- 8.5 beats/min.

Question: Which IC50 [1] does the source give for C[C@]12CC[C@H](SCC3CO3)C[C@H]1CC[C@@H]1[C@@H]2CC[C@]2(C)[C@@H](C3=CC(=O)OC3)CC[C@]12O (stereo partly drawn) [Comp. I-h, 3β-(2,3-Epoxy)propylthio-14β-hydroxy-5β-card-20(22)-enolide] here?
Answer: 0.0631 µM

Question: What about the IC50 [2] of the same compound?
Answer: 0.631 µM

Question: What about the “SBP (systolic blood pressure)” value [3] of the same compound?
Answer: 157 +/- 6.0 mm Hg

Question: And the “HR (heart rate)” value [3]?
Answer: 382 +/- 6.8 beats/min.

Question: With C[C@]12CC[C@H](SCCN)C[C@H]1CC[C@@H]1[C@@H]2CC[C@]2(C)[C@@H](C3=CC(=O)OC3)CC[C@]12O [Comp. I-i, 3β-(2-Aminoethylthio)-14β-hydroxy-5β-card-20(22)-enolide oxalate] as the compound, how does the IC50 [1] read?
Answer: 0.1 µM

Question: And the IC50 [2]?
Answer: 0.631 µM

Question: Which results are given for C[C@]12CC[C@H](SCCN)C[C@H]1CC[C@@H]1[C@@H]2CC[C@]2(C)[C@@H]([C@H]3COC(=O)C3)CC[C@]12O [Comp. I-j, 3β-(2-Aminoethylthio)-14β-hydroxy-5β-20(S) cardanolide oxalate]?
Answer: IC50 [1, 4]: 0.316 µM; IC50 [2, 5]: 3.16 µM

Question: Which results are given for C[C@]12CC[C@H](SCCCN)C[C@H]1CC[C@@H]1[C@@H]2CC[C@]2(C)[C@@H](C3=CC(=O)OC3)CC[C@]12O [Comp. I-k, 3β-(3-Aminopropylthio)-14β-hydroxy-5β-card-20(22)-enolide oxalate]?
Answer: IC50 [1]: 0.0794 µM; IC50 [2]: 0.501 µM; SBP (systolic blood pressure) [3]: 155 +/- 4.2 mm Hg; HR (heart rate) [3]: 385 +/- 11.0 beats/min.

Question: For C[C@]12CC[C@H](SCCCN)C[C@H]1CC[C@@H]1[C@@H]2CC[C@]2(C)[C@@H]([C@H]3COC(=O)C3)CC[C@]12O [Comp. I-l, 3β-(3-Aminopropylthio)-14β-hydroxy-5β-20(S)-cardanolide oxalate], which IC50 [1, 4] is on record?
Answer: 0.251 µM

Question: What about the IC50 [2, 5] of the same compound?
Answer: 2 µM

Question: And the “SBP (systolic blood pressure)” value [3]?
Answer: 147 +/- 4.8 mm Hg

Question: What about the “HR (heart rate)” value [3] of the same compound?
Answer: 390 +/- 10.0 beats/min.

Question: With C[C@]12CC[C@H](SCCCN)C[C@H]1CC[C@@H]1[C@@H]2CC[C@]2(C)[C@@H]([C@@H]3COC(=O)C3)CC[C@]12O [Comp. I-m, 3β-Aminopropylthio )-14β-hydroxy-5β-20(R)-cardanolide oxalate] as the compound, how does the IC50 [1, 4] read?
Answer: 0.398 µM

Question: What about the IC50 [2, 5] of the same compound?
Answer: 2.51 µM

Question: What does the source list for C[C@]12CC[C@H](SCCN3CCCC3)C[C@H]1CC[C@@H]1[C@@H]2CC[C@]2(C)[C@@H](C3=CC(=O)OC3)CC[C@]12O [Comp. I-n, 3β-(2-(1-Pyrrolidinyl)ethylthio)-14β-hydroxy-5β-card-20(22)-enolide sesquioxalate]?
Answer: IC50 [1]: 0.2 µM; IC50 [2]: 0.398 µM

Question: With C[C@]12CC[C@H](SCC[N+](C)(C)C)C[C@H]1CC[C@@H]1[C@@H]2CC[C@]2(C)[C@@H](C3=CC(=O)OC3)CC[C@]12O [Comp. I-p, 3β-(2-(Trimethylammonium)ethylthio)-14β-hydroxy-5β-card-20(22)-enolide chloride] as the compound, how does the IC50 [1] read?
Answer: 0.1 µM

Question: And the IC50 [2]?
Answer: 0.794 µM

Question: And the “SBP (systolic blood pressure)” value [3]?
Answer: 150 +/- 3.5 mm Hg

Question: What about the “HR (heart rate)” value [3] of the same compound?
Answer: 378 +/- 9.3 beats/min.

Question: With C[C@]12CC[C@H](SCCCN3CCCC3)C[C@H]1CC[C@@H]1[C@@H]2CC[C@]2(C)[C@@H](C3=CC(=O)OC3)CC[C@]12O [Comp. I-q, 3β-(3-(1-Pyrrolidinyl)propylthio)-14β-hydroxy-5β-card-20(22)-enolide oxalate] as the compound, how does the IC50 [1] read?
Answer: 0.158 µM

Question: What about the IC50 [2] of the same compound?
Answer: 0.251 µM

Question: For C[C@]12CC[C@H](SCCCN3CCNCC3)C[C@H]1CC[C@@H]1[C@@H]2CC[C@]2(C)[C@@H](C3=CC(=O)OC3)CC[C@]12O [Comp. I-r, 3β-(3-(1-Piperazinyl)propylthio)-14β-hydroxy-5β-card-20(22)-enolide], which IC50 [1] is on record?
Answer: 0.316 µM

Question: And the IC50 [2]?
Answer: 0.631 µM

Question: How did the IC50 [1] turn out when C[C@]12CC[C@H](SCC(O)CO)C[C@H]1CC[C@@H]1[C@@H]2CC[C@]2(C)[C@@H](C3=CC(=O)OC3)CC[C@]12O (stereo partly drawn) [Comp. I-s, 3β-(2,3-Dihydroxypropylthio)-14β-hydroxy-5β-card-20(22)-enolide] was run?
Answer: 0.0794 µM

Question: What about the IC50 [2] of the same compound?
Answer: 0.631 µM

Question: What about the “SBP (systolic blood pressure)” value [3] of the same compound?
Answer: 149 +/- 4.1 mm Hg

Question: And the “HR (heart rate)” value [3]?
Answer: 394 +/- 6.3 beats/min.

Question: For C[C@]12CC[C@H](SCC(O)CN)C[C@H]1CC[C@@H]1[C@@H]2CC[C@]2(C)[C@@H](C3=CC(=O)OC3)CC[C@]12O (stereo partly drawn) [Comp. I-u, 3β-(3-Amino-2-hydroxypropylthio)-14β-hydroxy-5β-card-20(22)-enolide], which IC50 [1] is on record?
Answer: 0.0501 µM

Question: What about the IC50 [2] of the same compound?
Answer: 0.251 µM

Question: What about the “SBP (systolic blood pressure)” value [3] of the same compound?
Answer: 152 +/- 5.2 mm Hg

Question: What about the “HR (heart rate)” value [3] of the same compound?
Answer: 377 +/- 9.0 beats/min.

Question: Which IC50 [1] does the source give for C[C@]12CC[C@H](O)C[C@H]1CC[C@@H]1[C@@H]2CC[C@]2(C)[C@@H]([C@@H]3COC(=O)C3)CC[C@]12O [DIGI 20(R), dihydrodigitoxigenin 20(R), reference compound] here?
Answer: 2.51 µM

Question: And the IC50 [2]?
Answer: 7.94 µM

Question: C[C@]12CC[C@H](O)C[C@H]1CC[C@@H]1[C@@H]2CC[C@]2(C)[C@@H]([C@H]3COC(=O)C3)CC[C@]12O [DIGI 20(S), dihydrodigitoxigenin 20(S), reference compound] was tested. Which IC50 [1] did it give?
Answer: 1.58 µM

Question: And the IC50 [2]?
Answer: 2.51 µM

Question: How did the IC50 [1] turn out when C[C@]12CC[C@H](O)C[C@H]1CC[C@@H]1[C@@H]2CC[C@]2(C)[C@@H](C3=CC(=O)OC3)CC[C@]12O [DIGI, digitoxigenin] was run?
Answer: 0.316 µM

Question: What about the IC50 [2] of the same compound?
Answer: 0.316 µM

Question: What about the “SBP (systolic blood pressure)” value [3] of the same compound?
Answer: 173 +/- 4.0 mm Hg

Question: And the “HR (heart rate)” value [3]?
Answer: 380 +/- 10.0 beats/min.
